Laboratory results reported in patent US20090082342A1, “N-SUBSTITUTED PIPERIDINE DERIVATIVES AS SEROTONIN RECEPTOR AGENTS” (Acadia Pharmaceuticals, Inc., priority 2007, published 2009).
Where a name gives a salt, the structure may show the parent alone.

Experiments:
Type in all cases: cell-based
5-HT2C receptor [1] = biological target: T1, 5-HT2C receptor (Homo sapiens, UniProt P28335); experiment: R-SAT functional receptor assay, antagonist activity at 5-HT2C
T1 construct: expressed in transfected cells; host or cells: NIH3T3 cells, pSI mammalian expression vector
T1 sequence (P28335 33-458): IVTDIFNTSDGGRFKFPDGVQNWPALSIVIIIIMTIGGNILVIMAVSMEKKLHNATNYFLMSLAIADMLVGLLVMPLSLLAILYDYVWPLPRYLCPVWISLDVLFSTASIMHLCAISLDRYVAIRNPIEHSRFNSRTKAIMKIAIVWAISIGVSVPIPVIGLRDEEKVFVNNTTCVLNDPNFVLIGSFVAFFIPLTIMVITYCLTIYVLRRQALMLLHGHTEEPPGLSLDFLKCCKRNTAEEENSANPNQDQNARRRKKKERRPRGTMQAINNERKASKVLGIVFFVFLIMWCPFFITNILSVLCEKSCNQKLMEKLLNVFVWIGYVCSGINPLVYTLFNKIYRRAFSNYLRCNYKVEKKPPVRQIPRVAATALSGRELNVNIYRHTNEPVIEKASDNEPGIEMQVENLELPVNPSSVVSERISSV
Experimental: (§1) Receptor Selection and Amplification (R-SAT®) Assays. The functional receptor assay, Receptor Selection and Amplification Technology (R-SAT®), was used (with minor modifications from the procedure described previously (Brann, M. R. U.S. Pat. No. 5,707,798, 1998; Chem. Abstr. 1998, 128, 111548) to screen compounds for efficacy at the 5-HT2A receptor. Briefly, NIH3T3 cells were grown in 96 well tissue culture plates to 70-80% confluence. Cells were transfected for 12-16 h with plasmid DNAs using superfect (Qiagen Inc.) as per manufacturer's protocols. R-SAT's were generally performed with 50 ng/well of receptor and 20 ng/well of β-galactosidase plasmid DNA. All receptor and G-protein constructs used were in the pSI mammalian expression vector (Promega Inc) as described previously. The 5-HT2A or 5-HT2C receptor gene was amplified by nested PCR from brain cDNA using the oligodeoxynucleotides based on the published sequence (Saltzman et. al, Biochem. Biophys. Res. Comm. 1991, 181, 1469). For large-scale transfections, cells were transfected for 12-16 h, then trypsinized and frozen in DMSO. Frozen cells were later thawed, plated at 10,000-40,000 cells per well of a 96 well plate that contained drug. With both methods, cells were then grown in a humidified atmosphere with 5% ambient CO2 for five days. Media was then removed from the plates and marker gene activity was measured by the addition of the β-galactosidase substrate o-nitrophenyl β-D-galactopyranoside (ONPG, in PBS with 5% NP-40). The resulting colorimetric reaction was measured in a spectrophotometric plate reader (Titertek Inc.) at […]. All data were analyzed using the computer program XLFit (IDBSm). Efficacy is the percent maximal repression compared to repression by a control compound (ritanserin in the case of 5-HT2A). pIC50 is the negative of the log(IC50), where IC50 is the calculated concentration in Molar that produces 50% maximal repression. Various metabolites of N-(1-methylpiperidin-4-yl)-N-(4-fluorophenylmethyl)-N′-(4-(2-methylpropyloxy)phenylmethyl) carbamide, including the compounds of Formulae (I), (II), (III), (IV) and (V) as well as other metabolites, were assayed as described herein.

5-HT2A receptor [2] = biological target: T2, 5-HT2A receptor (Homo sapiens, UniProt P28223); experiment: R-SAT functional receptor assay, antagonist activity at 5-HT2A
T2 construct: expressed in transfected cells; host or cells: NIH3T3 cells, pSI mammalian expression vector
Experimental: as §1

5-HT2A receptor [3] = biological target: T2, 5-HT2A receptor; experiment: R-SAT functional receptor assay, inverse agonist activity at 5-HT2A
Experimental: as §1

5-HT2C receptor [4] = biological target: T1, 5-HT2C receptor; experiment: R-SAT functional receptor assay, inverse agonist activity at 5-HT2C
Experimental: as §1, with “Various metabolites of N-(1-methylpiperidin-4-yl)-N-(4-fluorophenylmethyl)-N′-(4-(2-methylpropyloxy)phenylmethyl) carbamide, including the compounds of Formulae (I), (II), (III), (IV) and (V) as well as other metabolites, were assayed as described herein.” left out

T2 sequence (P28223 whole entry): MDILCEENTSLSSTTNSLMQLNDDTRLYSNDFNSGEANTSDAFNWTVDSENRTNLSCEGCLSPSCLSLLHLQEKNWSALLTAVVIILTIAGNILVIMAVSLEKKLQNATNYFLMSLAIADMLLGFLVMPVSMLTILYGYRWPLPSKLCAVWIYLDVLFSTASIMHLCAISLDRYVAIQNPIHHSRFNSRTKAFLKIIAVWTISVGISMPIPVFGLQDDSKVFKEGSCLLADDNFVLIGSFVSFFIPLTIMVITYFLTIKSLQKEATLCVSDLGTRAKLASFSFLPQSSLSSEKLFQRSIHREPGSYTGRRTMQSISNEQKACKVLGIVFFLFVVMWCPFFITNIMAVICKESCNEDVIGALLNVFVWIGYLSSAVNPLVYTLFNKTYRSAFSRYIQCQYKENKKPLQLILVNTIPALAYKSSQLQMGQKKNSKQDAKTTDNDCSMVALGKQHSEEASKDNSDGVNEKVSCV

Row | SMILES | Ki (5-HT2C receptor [1]) | Ki (5-HT2A receptor [2]) | IC50 (5-HT2A receptor [3]) | IC50 (5-HT2C receptor [4])
1 | CN1CCC(N(Cc2ccc(F)cc2)C(=O)NCc2ccc(O)cc2)CC1 [Formula (I), N-(4-Fluorobenzyl)-N-(1-methylpiperidin-4-yl)-N′-(4-hydroxybenzyl)carbamide Hydrochloride] | 316 nM | 12.6 nM | 31.6 nM | 
2 | CC(C)COc1ccc(CNC(=O)N(Cc2ccc(F)cc2)C2CCNCC2)cc1 [Formula (II), N-(4-Fluorobenzyl)-N-(piperidin-4-yl)-N′-(4-isobutoxybenzyl)carbamide Hydrochloride] | 100 nM | 1.26 nM | 2.51 nM | 
3 | CN1CCC(N(Cc2ccc(F)cc2)C(=O)NCc2ccc(OCC(C)(C)O)cc2)CC1 [Formula (III), N-(4-Fluorobenzyl)-N-(1-methylpiperidin-4-yl)-N′-[4-(2-hydroxy)isobutoxybenzyl]carbamide Hydrochloride] | 158 nM | 1 nM | 2 nM | 794 nM
4 | C[C@H](CO)COc1ccc(CNC(=O)N(Cc2ccc(F)cc2)C2CCN(C)CC2)cc1 [Formula (IV), N-(4-Fluorobenzyl)-N-(1-methyl-piperidin-4-yl)-N′-(4-(R)-[(3-hydroxy)-isobutoxy]benzyl)carbamide] | 158 nM |  | 3.16 nM | 200 nM
5 | CC(C)COc1ccc(CNC(=O)N(Cc2ccc(F)cc2)C2CC[N+](C)([O-])CC2)cc1 (centres unmarked) [Formula (V), N-(4-Fluorobenzyl)-N-(1-methyl-1-oxopiperidin-4-yl)-N′-(4-isobutoxybenzyl)carbamide] | 398 nM | 31.6 nM | 31.6 nM | 2000 nM
